According to PMC7327383, “The affinity and selectivity of α‐adrenoceptor antagonists, antidepressants, and antipsychotics for the human α1A, α1B, and α1D‐adrenoceptors” (Pharmacology Research & Perspectives, 2020):
Where two headings read alike, the source gives them in different places. One block for each compound: values may come before it.

How the values were obtained:
human α1B-adrenoceptor = molecular target: T1, human α1B-adrenoceptor (Homo sapiens, UniProt P35368); experiment: [3H]prazosin whole-cell competition binding, CHO-α1B cells; details: for IC50: read-out: Log IC50 α1B (converted)
T1 construct: CHO cells stably expressing either the full‐length human α1A, α1B, or α1D‐adrenoceptor
T1 sequence (P35368 1-520): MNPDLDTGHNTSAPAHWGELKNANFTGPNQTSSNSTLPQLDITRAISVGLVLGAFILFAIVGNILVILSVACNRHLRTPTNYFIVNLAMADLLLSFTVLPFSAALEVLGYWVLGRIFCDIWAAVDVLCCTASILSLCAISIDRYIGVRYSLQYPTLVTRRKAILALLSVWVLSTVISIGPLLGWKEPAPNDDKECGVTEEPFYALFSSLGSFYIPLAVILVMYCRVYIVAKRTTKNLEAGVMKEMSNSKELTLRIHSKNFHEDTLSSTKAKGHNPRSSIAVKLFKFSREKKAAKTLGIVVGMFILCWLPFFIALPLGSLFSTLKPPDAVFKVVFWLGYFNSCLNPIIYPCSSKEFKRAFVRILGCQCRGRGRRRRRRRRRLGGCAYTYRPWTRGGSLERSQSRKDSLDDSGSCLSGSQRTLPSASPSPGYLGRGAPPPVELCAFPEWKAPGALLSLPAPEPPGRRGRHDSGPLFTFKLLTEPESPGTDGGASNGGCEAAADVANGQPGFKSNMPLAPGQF

[1] = molecular target: T2, full-length human α1D-adrenoceptor (Homo sapiens, UniProt P25100); experiment: [3H]prazosin whole-cell competition binding, CHO-α1D cells
T2 sequence (P25100 1-572): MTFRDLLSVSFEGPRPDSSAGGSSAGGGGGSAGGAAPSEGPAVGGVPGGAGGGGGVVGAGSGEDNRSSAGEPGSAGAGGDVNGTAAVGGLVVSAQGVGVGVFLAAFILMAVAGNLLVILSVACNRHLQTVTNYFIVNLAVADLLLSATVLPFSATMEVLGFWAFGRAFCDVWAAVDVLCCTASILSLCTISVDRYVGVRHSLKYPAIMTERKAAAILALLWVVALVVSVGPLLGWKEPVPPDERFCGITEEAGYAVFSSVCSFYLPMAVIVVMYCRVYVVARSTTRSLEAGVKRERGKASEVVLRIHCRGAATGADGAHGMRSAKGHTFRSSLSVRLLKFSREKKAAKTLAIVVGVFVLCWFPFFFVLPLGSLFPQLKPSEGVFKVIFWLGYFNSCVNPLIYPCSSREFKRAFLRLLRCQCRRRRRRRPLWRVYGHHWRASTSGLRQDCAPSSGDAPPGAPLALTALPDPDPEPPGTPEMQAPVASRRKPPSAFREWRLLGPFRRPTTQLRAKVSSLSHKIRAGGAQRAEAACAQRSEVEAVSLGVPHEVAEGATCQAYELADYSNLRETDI

human α1A-adrenoceptor = molecular target: T3, human α1A-adrenoceptor (Homo sapiens, UniProt P35348); experiment: [3H]prazosin whole-cell competition binding, CHO-α1A cells
T3 construct: CHO cells stably expressing either the full‐length human α1A, α1B, or α1D‐adrenoceptor
T3 sequence (P35348 1-466): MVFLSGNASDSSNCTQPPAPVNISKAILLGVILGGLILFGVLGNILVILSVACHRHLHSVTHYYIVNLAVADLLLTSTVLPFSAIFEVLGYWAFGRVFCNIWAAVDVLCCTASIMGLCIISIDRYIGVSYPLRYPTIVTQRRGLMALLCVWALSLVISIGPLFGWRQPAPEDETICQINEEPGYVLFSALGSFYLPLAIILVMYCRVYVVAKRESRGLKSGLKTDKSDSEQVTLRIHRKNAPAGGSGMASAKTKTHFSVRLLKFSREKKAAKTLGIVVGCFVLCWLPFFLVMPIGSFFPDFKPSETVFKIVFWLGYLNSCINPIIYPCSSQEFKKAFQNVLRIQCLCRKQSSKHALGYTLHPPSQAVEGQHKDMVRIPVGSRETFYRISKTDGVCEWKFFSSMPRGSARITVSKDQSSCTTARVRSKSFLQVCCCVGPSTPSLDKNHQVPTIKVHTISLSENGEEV

[2] = single-component inhibition curve, given as log KD (negative), mean ± SE mean, read-out: Log KD α1B (converted)
[3] = Log KD α1D, single-component inhibition curve, given as log KD (negative), mean ± SE mean
[4] = single-component inhibition curve, given as log KD (negative), mean ± SE mean
[5] = ratio, 1 = no selectivity for a subtype over another
[6] = selectivity ratio, 1 = no selectivity for a given receptor subtype over another
[7] = percentage of inhibition through first component, control
[8] = two-component inhibition curve, proportion of site 1
[9] = Log KD α1D site 1, high-affinity component of two-component curve, control, used for selectivity
[10] = low-affinity component of two-component curve, control
[11] = log KD from 3H-prazosin whole cell binding, CHO cells, mean ± s.e.mean

Compound: CNCCC=C1c2ccccc2CCc2ccccc21 [Nortriptyline]
Selectivity ratio α1B vs α1D (human α1B-adrenoceptor): 1.8 fold | Kd (human α1B-adrenoceptor; [2]): 851 nM | Kd [1, 3]: 1550 nM | Selectivity ratio α1A vs α1B (human α1A-adrenoceptor): 47 fold | Selectivity ratio α1A vs α1D (human α1A-adrenoceptor): 85 fold | Kd (human α1A-adrenoceptor; Log KD α1A, single-component inhibition curve, given as log KD (negative), mean ± SE mean): 18.2 nM

Compound: CN1CCN(c2ccc(Nc3c4ccccc4nc4ccccc34)cc2)CC1 [JP1302]
Log KD α1B (human α1B-adrenoceptor; [4]): −5.46 ± 0.02 | Log KD α1D [1, 4]: −5.58 ± 0.09 | Log KD α1A (human α1A-adrenoceptor; [4]): −6.21 ± 0.04

Compound: CNCCCN1c2ccccc2CCc2ccc(Cl)cc21 [Norclomipramine]
Selectivity ratio α1B vs α1D (human α1B-adrenoceptor; ratio of KD values, higher α1B affinity, 1.0 under vs = none): 1.0 fold | Log KD α1B (human α1B-adrenoceptor; [4]): −5.84 ± 0.04 | Log KD α1D [1, 4]: −5.84 ± 0.06 | Selectivity ratio α1A vs α1D (human α1A-adrenoceptor; ratio of KD values, higher α1A affinity, 1.0 under vs = none): 48 fold | Selectivity ratio α1A vs α1B (human α1A-adrenoceptor; ratio of KD values, printed under α1A = higher α1A affinity, 1.0 under vs = none): 48 fold | selectivity α1A vs 1D (human α1A-adrenoceptor; [5]): 48 | selectivity α1A vs α1B (human α1A-adrenoceptor; [5]): 48 | selectivities α1A vs α1B (human α1A-adrenoceptor; [6]): 48 | selectivities α1A vs α1D (human α1A-adrenoceptor; [6]): 48 | Log KD α1A (human α1A-adrenoceptor; [4]): −7.52 ± 0.08

Compound: CNCC[C@H](Oc1cccc2ccccc12)c1cccs1 [Duloxetine]
Kd (human α1B-adrenoceptor; read-out: Log KD α1B (apparent) (converted)): 19500 nM | Kd [1]: 2630 nM

Kd (human α1B-adrenoceptor; [2]): 661 nM | Kd [1, 3]: 537 nM
Compound: CN(C)CCC=C1c2ccccc2COc2ccccc21 [Doxepin]

Compound: CC(C)C[C@H]1C(=O)N2CCC[C@H]2[C@]2(O)O[C@](NC(=O)[C@@H]3C=C4c5cccc6[nH]c(Br)c(c56)C[C@H]4N(C)C3)(C(C)C)C(=O)N12 [Bromocriptine]
Kd (human α1B-adrenoceptor; [2]): 11 nM | Kd [1]: 49 nM

Kd (human α1B-adrenoceptor; [2]): 14.5 nM | % site 1 α1D [1, 7]: 56.0 ± 5.0% site 1
Compound: CN(C)CCCN1c2ccccc2Sc2ccc(Cl)cc21 [Chlorpromazine]

Kd (human α1B-adrenoceptor; [2]): 3160 nM | Kd [1, 3]: 1050 nM
Compound: O=c1[nH]c2ccccc2n1CCCN1CCC(n2c(=O)[nH]c3cc(Cl)ccc32)CC1 [Domperidone]

IC50 (human α1B-adrenoceptor): > 10000 nM | Kd [1, 3]: 2340 nM
Compound: Fc1ccc([C@@H]2CCNC[C@H]2COc2ccc3c(c2)OCO3)cc1 [Paroxetine]

Kd (human α1B-adrenoceptor; [2]): 589 nM | % site 1 α1D [1, 7]: 57.7 ± 2.6% site 1
Compound: COc1ccccc1N1CCN(CCN2C(=O)CC3(CCCC3)CC2=O)CC1 [BMY7378]
% site 1 α1D [1, 8]: -8.60 ± 0.13 -5.93 ± 0.37 57.7 ± 2.6% site 1

IC50 (human α1B-adrenoceptor): > 100000 nM | Kd [1, 3]: 12300 nM
Compound: CN(C)CCCC1(c2ccc(F)cc2)OCc2cc(C#N)ccc21 (centres unmarked) [Citalopram]

Compound: CCOc1ccccc1OCCN[C@H](C)Cc1ccc(OC)c(S(N)(=O)=O)c1 [Tamsulosin]
Kd (human α1B-adrenoceptor; Log KD α1B, +1 mmol/L sodium thiosulphate, ligand preincubated 30 min with thiosulphate, single-component curve (column Log KD site 1)): 7.41 nM | Kd (human α1B-adrenoceptor; [2]): 7.59 nM | Log KD α1D site 2 [1]: −5.67 ± 0.15 | Log KD α1D site 2, +1 mmol/L sodium thiosulphate [1]: −5.60 ± 0.08 | effect of sodium thiosulfate preincubation on binding ([1]; 1 mmol/L sodium thiosulfate, tamsulosin at all three receptors (Table 2)): no effect | Kd ([1]; Log KD α1D site 1, +1 mmol/L sodium thiosulphate, two-component curve, high-affinity component): 0.776 nM | Kd [1, 9]: 0.661 nM | % site 1 α1D, +1 mmol/L sodium thiosulphate ([1]; two-component curve): 44.0 ± 2.8% | % site 1 α1D [1, 8]: -9.18 ± 0.08 -5.67 ± 0.15 54.6 ± 3.7% site 1

Compound: CC(COc1ccccc1)N(CCCl)Cc1ccccc1 (centres unmarked) [Phenoxybenzamine]
Kd (human α1B-adrenoceptor; high-affinity component of two-component curve, control, read-out: Log KD α1B site 1 (converted)): 20.4 nM | Log KD α1B site 2 (human α1B-adrenoceptor; [10]): −5.57 ± 0.06 | % site 1, α1B (human α1B-adrenoceptor; share of site 1 in the two-component inhibition curve): -7.69 ± 0.06 -5.57 ± 0.06 67.5 ± 2.5% site 1 | % site 1, α1B (human α1B-adrenoceptor; [8]): -7.69 ± 0.06 -5.57 ± 0.06 67.5 ± 2.5% site 1 | Kd [1]: 3.72 nM | Log KD α1D site 2 [1, 10]: −5.42 ± 0.08 | % site 1 α1D [1, 8]: -8.43 ± 0.19 -5.42 ± 0.08 39.1 ± 2.0% site 1

Log KD α1B (human α1B-adrenoceptor; [4]): −8.59 ± 0.03 | Log KD α1A (human α1A-adrenoceptor; [4]): −9.57 ± 0.06
Compound: COc1ccccc1N1CCN(CCn2c(=O)[nH]c3c([nH]c4ccccc43)c2=O)CC1 [3‐MPPI]

Log KD α1B (human α1B-adrenoceptor; [11]): -8.59 ± 0.03 | Log KD α1A (human α1A-adrenoceptor; [11]): -9.57 ± 0.06
Compound: COc1ccccc1N1CCN(CCn2c(=O)[nH]c3c([nH]c4ccccc43)c2=O)CC1 [3-MPPI]

Kd (human α1B-adrenoceptor; [2]): 37.2 nM | Kd [1, 9]: 13.8 nM | Log KD α1D site 2 [1, 10]: −6.03 ± 0.19 | % site 1 α1D [1, 7]: 53.3 ± 4.1% site 1
Compound: OCCN1CCN(CCCN2c3ccccc3Sc3ccc(Cl)cc32)CC1 [Perphenazine]
% site 1 α1D [1, 8]: -7.86 ± 0.10 -6.03 ± 0.19 53.3 ± 4.1% site 1

Kd (human α1B-adrenoceptor; [2]): 794 nM | Kd [1, 3]: 1020 nM
Compound: CC(CN(C)C)CN1c2ccccc2CCc2ccccc21 (centres unmarked) [Trimipramine]

Kd (human α1B-adrenoceptor; [2]): 27.5 nM | Kd [1, 3]: 21.9 nM
Compound: COc1cc2nc(N(C)CCCNC(=O)C3CCCO3)nc(N)c2cc1OC (centres unmarked) [Alfuzosin]
